The results in this text go back to patent EP2272817A1, “PAI-1 INHIBITOR” (Institute of Medicinal Molecular Design, Inc., priority 2008, dated 2009).

This test deals with recombinant human PAI-1 (Homo sapiens, UniProt P05121). Put plainly: Test Example 2: Human PAI-1 Inhibitory Activity (pH 7.4 HEPES buffer, 10 minutes incubation with two-chain tPA). Set-up: purchased Molecular Innovations, Inc. The conditions noted are these: read-out: Inhibition Rate of PAI-1 Activity (%). It counts as biochemical. Here is the method:
0.1 M HEPES, 0.1 M NaCl. 1 mM EDTA. 0.1 % Polyethylene glycol 8,000 (Hampton Research Corporation),
2 mM Dimethyldecylphoshine oxide [Apo-10] (Fluka Corporation)

The structures appear in SMILES notation.

Sequence of recombinant human PAI-1 (P05121 24-402): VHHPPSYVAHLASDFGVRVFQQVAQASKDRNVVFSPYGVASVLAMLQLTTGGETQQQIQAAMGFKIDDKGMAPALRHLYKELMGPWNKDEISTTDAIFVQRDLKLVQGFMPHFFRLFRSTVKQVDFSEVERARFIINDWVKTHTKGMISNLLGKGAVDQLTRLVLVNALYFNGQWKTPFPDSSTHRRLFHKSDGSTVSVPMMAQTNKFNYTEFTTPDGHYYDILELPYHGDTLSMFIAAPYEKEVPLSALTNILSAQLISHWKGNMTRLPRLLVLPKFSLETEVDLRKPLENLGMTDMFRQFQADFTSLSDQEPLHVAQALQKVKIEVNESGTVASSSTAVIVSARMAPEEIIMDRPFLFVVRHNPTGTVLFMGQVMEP

With `CCCCCOc1ccc(-c2ccc(OC(F)(F)F)cc2)cc1N(CCCCc1ccc(F)cc1)C(=O)C(=O)O` [Compound 382], the inhibition at 0.1 µM worked out at 13%, the inhibition at 0.3 µM was found to be 12%, the inhibition at 1 µM stood at 84% and the inhibition at 3 µM amounted to 97%.

For `O=C(O)C(=O)N(CCCCc1ccccc1)c1cc(-c2ccc(OC(F)(F)F)cc2)ccc1OCCC(F)(F)F` [Compound 383], the inhibition at 0.1 µM is 2%, the inhibition at 0.3 µM amounted to 6%, the inhibition at 1 µM came to 32% and the inhibition at 3 µM is 98%.

For the compound `CCCCCOc1ccc(-c2ccc(OC(F)(F)F)cc2)cc1N(CCCCc1ccc(Cl)cc1)C(=O)C(=O)O` [Compound 384], the inhibition at 0.1 µM worked out at 0%, the inhibition at 0.3 µM worked out at 11%, the inhibition at 1 µM was found to be 91% and the inhibition at 3 µM stood at 95%.

In the case of `CCCCCCCCCCCCCCCOc1cc(-c2ccc(OC(F)(F)F)cc2)ccc1N(CCCCc1ccccc1)C(=O)C(=O)O` [Compound 385], the inhibition at 0.1 µM turned out to be 74%, the inhibition at 0.3 µM was over 99%, the inhibition at 1 µM was over 99% and the inhibition at 3 µM is over 99%.

Consider `CCCCCCCOc1cc(-c2ccc(OC(F)(F)F)cc2)ccc1N(CCCCc1ccccc1)C(=O)C(=O)O` [Compound 386], for which the inhibition at 0.1 µM amounted to 5%, the inhibition at 0.3 µM was 18%, the inhibition at 1 µM was over 99% and the inhibition at 3 µM is over 99%.

Consider `CCCCCCCCCOc1ccc(N(CCCCc2ccccc2)C(=O)C(=O)O)cc1-c1ccc(OC(F)(F)F)cc1` [Compound 387], for which the inhibition at 0.1 µM turned out to be 66%, the inhibition at 0.3 µM is over 99%, the inhibition at 1 µM is over 99% and the inhibition at 3 µM is over 99%.

Turning to `CCCCCCCCCOc1cc(N(Cc2ccc(C(C)(C)C)cc2)C(=O)C(=O)O)ccc1-c1ccc(OC(F)(F)F)cc1` [Compound 388], the inhibition at 0.1 µM is 75%, the inhibition at 0.3 µM is over 99%, the inhibition at 1 µM was over 99% and the inhibition at 3 µM is over 99%.

As to `CCCCCCCCCOc1cc(N(CCCCc2ccccc2)C(=O)C(=O)O)ccc1-c1ccc(OC(F)(F)F)cc1` [Compound 389], the inhibition at 0.1 µM is 65%, the inhibition at 0.3 µM stood at 97%, the inhibition at 1 µM is over 99% and the inhibition at 3 µM was over 99%.

With `CCCCCOc1ccc(-c2ccc(C(F)(F)F)cc2)cc1N(CCCCc1ccccc1)C(=O)C(=O)O` [Compound 390], the inhibition at 0.1 µM turned out to be 4%, the inhibition at 0.3 µM was 12%, the inhibition at 1 µM came out at 79% and the inhibition at 3 µM stood at 87%.

In the case of `CCCCCOc1ccc(-c2cccc(OC(F)(F)F)c2)cc1N(CCCCc1ccccc1)C(=O)C(=O)O` [Compound 391], the inhibition at 0.1 µM was 10%, the inhibition at 0.3 µM worked out at 8%, the inhibition at 1 µM worked out at 69% and the inhibition at 3 µM was 89%.

Turning to `CCCCCOc1cc(-c2ccc(C(F)(F)F)cc2)ccc1N(CCCCc1ccccc1)C(=O)C(=O)O` [Compound 392], the inhibition at 0.1 µM worked out at 7%, the inhibition at 0.3 µM stood at 14%, the inhibition at 1 µM was found to be 77% and the inhibition at 3 µM was over 99%.

Turning to `CCCCCOc1cc(-c2cccc(OC(F)(F)F)c2)ccc1N(CCCCc1ccccc1)C(=O)C(=O)O` [Compound 393], the inhibition at 0.1 µM turned out to be 8%, the inhibition at 0.3 µM came out at 19%, the inhibition at 1 µM came to 75% and the inhibition at 3 µM is 97%.

In the case of `CCCCCCCOc1ccc(N(CCCCc2ccccc2)C(=O)C(=O)O)cc1-c1ccc(OC(F)(F)F)cc1` [Compound 394], the inhibition at 0.1 µM was determined as 13%, the inhibition at 0.3 µM is 69%, the inhibition at 1 µM is 98% and the inhibition at 3 µM is over 99%.

For the compound `O=C(O)c1cc(-c2ccc(OC(F)(F)F)cc2)ccc1OCc1ccccc1` [Compound 401], the inhibition at 3 µM amounted to 15%, the inhibition at 10 µM stood at 17% and the inhibition at 25 µM amounted to 53%.

In the case of `CCCCOc1ccc(-c2ccc(OC(F)(F)F)cc2)cc1C=CC(=O)O` [Compound 405], the inhibition at 1 µM was 14%, the inhibition at 3 µM came to 63%, the inhibition at 10 µM is over 99% and the inhibition at 25 µM turned out to be 95%.

In the case of `CCCCOc1ccc(-c2ccc(OC(F)(F)F)cc2)cc1CCC(=O)O` [Compound 407], the inhibition at 1 µM was found to be 14%, the inhibition at 3 µM came out at 41%, the inhibition at 10 µM was over 99% and the inhibition at 25 µM stood at 98%.

As for `CC(C)(C)c1ccc(COc2ccc(NS(=O)(=O)c3ccc(OC(F)(F)F)cc3)cc2CCC(=O)O)cc1` [Compound 415], the inhibition at 1 µM stood at 41%, the inhibition at 3 µM is 98%, the inhibition at 10 µM is over 99% and the inhibition at 25 µM was over 99%.

In the case of `CN(C(=O)c1ccc(OC(F)(F)F)cc1)c1ccc(OCc2ccc(C(C)(C)C)cc2)c(CCC(=O)O)c1` [Compound 416], the inhibition at 1 µM came to 26%, the inhibition at 3 µM stood at 54%, the inhibition at 10 µM was over 99% and the inhibition at 25 µM was over 99%.

Take `CC(C)(C)c1ccc(COc2ccc(N3CCN(c4ccc(OC(F)(F)F)cc4)CC3)cc2/C=C/C(=O)O)cc1` [Compound 418]: the inhibition at 1 µM is 73%, the inhibition at 3 µM was determined as 95%, the inhibition at 10 µM was 94% and the inhibition at 25 µM amounted to 90%.

Regarding `CC(C)(C)c1ccc(COc2ccc(N3CCN(c4ccc(OC(F)(F)F)cc4)CC3)cc2CCC(=O)O)cc1` [Compound 419], the inhibition at 1 µM is 41%, the inhibition at 3 µM amounted to 93%, the inhibition at 10 µM came to 98% and the inhibition at 25 µM was over 99%.

On to `CC(C)(C)c1ccc(COc2ccc(-c3ccc(OC(F)(F)F)cc3)cc2C(=O)O)cc1` [Compound 421], for which the inhibition at 0.1 µM came to 0%, the inhibition at 0.3 µM came out at 3%, the inhibition at 1 µM amounted to 14% and the inhibition at 3 µM amounted to 81%.

Take `CCCCC(CC(=O)O)c1cc(-c2ccc(OC(F)(F)F)cc2)ccc1Oc1ccc(C(C)(C)C)cc1` (centres unmarked) [Compound 422]: the inhibition at 0.1 µM was found to be 12%, the inhibition at 0.3 µM was determined as 24%, the inhibition at 1 µM amounted to 72% and the inhibition at 3 µM was over 99%.

`CCCCC(Nc1cc(-c2ccc(OC(F)(F)F)cc2)ccc1Oc1ccc(C(C)(C)C)cc1)C(=O)O` (centres unmarked) [Compound 423]: the inhibition at 0.1 µM was determined as 1%, the inhibition at 0.3 µM is 1%, the inhibition at 1 µM is 74% and the inhibition at 3 µM was 96%.

As for `CCCCCOc1cc(-c2ccc(OC(F)(F)F)cc2)cc(OCCCCC)c1OCC(=O)O` [Compound 424], the inhibition at 0.1 µM came out at 0%, the inhibition at 0.3 µM was 4%, the inhibition at 1 µM was 38% and the inhibition at 3 µM is over 99%.

Consider `CCCCCCCOc1cc(-c2ccc(OC(F)(F)F)cc2)cc(OCCCCCCC)c1OCC(=O)O` [Compound 425], for which the inhibition at 0.1 µM is 17%, the inhibition at 0.3 µM was 54% and the inhibition at 1 µM was over 99%.
